“Also recorded” adds a separate entry of the source.
Test system: SUM159, MDA-MB-231 and T47D cells
Assay: Dose response of breast cancer cell lines differing in CSC marker expression
Assay type: cell-based
Details: range of doses, FIG. 5B
Description: FIG. 5A depicts flow cytometry analysis of Sum159, MDA-MB-231 and T47D cell lines with respect to cell surface expression of CD44 and CD24. Note that while the majority of cells in Sum159 and MDA-MB-231 line contain large amounts of CSCs, T47D cells have very few such cells. FIG. 5B depicts dose response curves of Sum159, MDA-MB-231 and T47D cell treated with Salinomycin.
Cancer stem cells are resistant to a wide spectrum of treatments and chemotherapeutics. Since the compounds identified using the described screening approach preferentially target epithelial cells having undergone EMT, we wished to determine whether such compounds might also serve to target cancer stem cells.

## CC[C@@H](C(=O)[C@@H](C)[C@@H](O)[C@H](C)[C@@H]1O[C@@H]([C@@H](CC)C(=O)O)CC[C@@H]1C)[C@H]1O[C@]2(C=C[C@@H](O)[C@]3(CC[C@@](C)([C@H]4CC[C@](O)(CC)[C@H](C)O4)O3)O2)[C@H](C)C[C@@H]1C [salinomycin]
  sensitivity of CSC-enriched SUM159 and MDA-MB-231 relative to CSC-poor T47D cells: positively correlated; also recorded: more sensitive

— patent publication US20140294729A1, “METHODS FOR IDENTIFICATION AND USE OF AGENTS TARGETING CANCER STEM CELLS” (Whitehead Institute for Biomedical Research, priority 2008, published 2014)
